target: baculovirus-expressed ALK (Homo sapiens, UniProt Q9UM73); assay: ALK Kinase Assay (ELISA/TRF, PLC-γ substrate); format: biochemical; settings: read-out: ALK Kinase Inhibition (IC50); also: 1 µM ATP (Km level)
Method: Example compounds were tested for their ability to inhibit the kinase activity of baculovirus-expressed ALK using a modification of the ELISA protocol reported for trkA in Angeles, T. S. et al., Anal. Biochem. 1996, 236, 49-55, which is incorporated herein by reference in its entirety. Phosphorylation of the substrate, phospholipase C-gamma (PLC-γ) generated as a fusion protein with glutathione S-transferase (GST) as reported in Rotin, D. et al., EMBO J. 1992, 11, 559-567, which is incorporated herein by reference in its entirety, was detected with a europium-labeled anti-phosphotyrosine antibody and measured by time-resolved fluorescence (TRF). Briefly, each 96-well plate was coated with 100 μL/well of 10 μg/mL substrate (phospholipase C-γ) in Tris-buffered saline (TBS). […] The reaction was initiated by adding enzyme (30 ng/ml ALK) and was allowed to proceed at 37° C. for 15 minutes. Detection of the phosphorylated product was performed by adding 100 μl/well of Eu-N1 labeled PT66 antibody (Perkin Elmer # AD0041). Incubation at 37° C. then proceeded for one (1) hour, followed by addition of 100 μL enhancement solution (Wallac #1244-105). The plate was gently agitated and after thirty minutes, the fluorescence of the resulting solution was measured using the EnVision 2100 (or 2102) multilabel plate reader (Perkin Elmer).
Data analysis was performed using ActivityBase (IDBS, Guilford, UK). IC50 values were calculated by plotting percent inhibition versus log10 of the concentration of compound and fitting to the nonlinear regression sigmoidal dose-response (variable slope) equation in XLFit (IDBS, Guilford, UK).

Chain of baculovirus-expressed ALK (Q9UM73 19-1620): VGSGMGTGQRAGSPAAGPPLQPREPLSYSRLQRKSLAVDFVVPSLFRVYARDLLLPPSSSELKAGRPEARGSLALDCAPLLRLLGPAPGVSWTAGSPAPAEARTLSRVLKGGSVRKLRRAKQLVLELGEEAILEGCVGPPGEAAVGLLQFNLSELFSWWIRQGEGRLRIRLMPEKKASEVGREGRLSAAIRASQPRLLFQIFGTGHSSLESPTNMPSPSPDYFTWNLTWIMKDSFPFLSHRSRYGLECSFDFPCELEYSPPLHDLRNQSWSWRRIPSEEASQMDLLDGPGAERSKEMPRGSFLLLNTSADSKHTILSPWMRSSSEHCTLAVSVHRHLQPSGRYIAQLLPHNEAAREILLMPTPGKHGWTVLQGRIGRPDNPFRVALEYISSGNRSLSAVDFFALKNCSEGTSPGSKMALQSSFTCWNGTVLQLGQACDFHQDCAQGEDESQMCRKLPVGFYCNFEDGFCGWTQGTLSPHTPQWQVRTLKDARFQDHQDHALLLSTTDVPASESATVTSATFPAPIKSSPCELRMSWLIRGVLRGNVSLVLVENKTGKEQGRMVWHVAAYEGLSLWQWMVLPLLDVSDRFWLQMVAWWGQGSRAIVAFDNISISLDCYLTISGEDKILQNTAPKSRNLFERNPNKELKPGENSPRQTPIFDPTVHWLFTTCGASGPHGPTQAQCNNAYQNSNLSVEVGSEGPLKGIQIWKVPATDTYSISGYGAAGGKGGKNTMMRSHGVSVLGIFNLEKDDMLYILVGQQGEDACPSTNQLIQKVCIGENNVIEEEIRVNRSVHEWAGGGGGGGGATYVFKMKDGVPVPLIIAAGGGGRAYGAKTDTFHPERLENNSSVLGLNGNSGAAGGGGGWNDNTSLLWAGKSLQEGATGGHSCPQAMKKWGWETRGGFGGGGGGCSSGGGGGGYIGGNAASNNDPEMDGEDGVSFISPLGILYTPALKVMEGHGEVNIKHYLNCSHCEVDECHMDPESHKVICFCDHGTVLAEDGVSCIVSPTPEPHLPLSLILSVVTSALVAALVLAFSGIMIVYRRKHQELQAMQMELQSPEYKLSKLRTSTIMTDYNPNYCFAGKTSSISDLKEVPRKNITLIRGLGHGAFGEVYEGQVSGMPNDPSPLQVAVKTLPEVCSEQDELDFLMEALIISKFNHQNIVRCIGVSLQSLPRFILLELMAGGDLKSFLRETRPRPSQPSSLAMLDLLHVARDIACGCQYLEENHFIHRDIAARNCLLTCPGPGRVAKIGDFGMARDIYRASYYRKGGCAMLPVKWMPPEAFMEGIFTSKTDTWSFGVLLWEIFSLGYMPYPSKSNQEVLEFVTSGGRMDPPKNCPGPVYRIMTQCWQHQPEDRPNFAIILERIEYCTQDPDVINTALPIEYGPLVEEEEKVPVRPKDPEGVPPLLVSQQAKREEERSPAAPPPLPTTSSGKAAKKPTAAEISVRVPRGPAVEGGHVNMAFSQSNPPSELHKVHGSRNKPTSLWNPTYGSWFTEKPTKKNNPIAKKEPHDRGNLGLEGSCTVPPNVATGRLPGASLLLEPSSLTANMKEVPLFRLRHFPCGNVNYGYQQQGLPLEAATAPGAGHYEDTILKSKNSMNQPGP

With `O=C(c1cccc(-c2cnc3c(c2)N(Cc2cc(Cl)ccc2C(F)(F)F)CCN3)c1)N1CCN(C(=O)C2CCCO2)CC1` (stereo not shown) [Example 351, (3-{1-[5-Chloro-2-(trifluoromethyl)benzyl]-1,2,3,4-tetrahydropyrido[2,3-b]pyrazin-7-yl}phenyl)-[4-(tetrahydrofuran-2-carbonyl)piperazin-1-yl]methanone] as the compound, how does the IC50 read?
Its IC50 is 100 to 1000 nM.

How did the IC50 turn out when `O=C(NCC1CCCO1)c1cccc(-c2cnc3c(c2)N(Cc2cc(Cl)ccc2C(F)(F)F)CCN3)c1` (stereo not shown) [Example 352, 3-{1-[5-Chloro-2-(trifluoromethyl)benzyl]-1,2,3,4-tetrahydropyrido[2,3-b]pyrazin-7-yl}-N-(tetrahydrofuran-2-ylmethyl)benzamide] was run?
Its IC50 is 100 to 1000 nM.

`COc1cccc(CNC(=O)c2cccc(-c3cnc4c(c3)N(Cc3cc(Cl)ccc3C(F)(F)F)CCN4)c2)c1` [Example 353, 3-{1-[5-Chloro-2-(trifluoromethyl)benzyl]-1,2,3,4-tetrahydropyrido[2,3-b]pyrazin-7-yl}-N-(3-methoxybenzyl)benzamide] was tested. Which IC50 did it give?
The IC50 was 1000 to 10000 nM.

For `COc1ccc(CNC(=O)c2cccc(-c3cnc4c(c3)N(Cc3cc(Cl)ccc3C(F)(F)F)CCN4)c2)cc1` [Example 354, 3-{1-[5-Chloro-2-(trifluoromethyl)benzyl]-1,2,3,4-tetrahydropyrido[2,3-b]pyrazin-7-yl}-N-(4-methoxybenzyl)benzamide], which IC50 is on record?
The IC50 was 100 to 1000 nM.

`O=C(NCCOc1ccccc1)c1cccc(-c2cnc3c(c2)N(Cc2cc(Cl)ccc2C(F)(F)F)CCN3)c1` [Example 355, 3-{1-[5-Chloro-2-(trifluoromethyl)benzyl]-1,2,3,4-tetrahydropyrido[2,3-b]pyrazin-7-yl}-N-(2-phenoxyethyl)benzamide] was tested. Which IC50 did it give?
The IC50 was 100 to 1000 nM.

For `O=C(NCc1ccccc1)c1cccc(-c2cnc3c(c2)N(Cc2cc(Cl)ccc2C(F)(F)F)CCN3)c1` [Example 356, N-Benzyl-3-{1-[5-Chloro-2-(trifluoromethyl)benzyl]-1,2,3,4-tetrahydropyrido[2,3-b]pyrazin-7-yl}benzamide], which IC50 is on record?
The IC50 was 100 to 1000 nM.

How did the IC50 turn out when `O=C(c1cccc(-c2cnc3c(c2)N(Cc2cc(Cl)ccc2C(F)(F)F)CCN3)c1)N1CCN(c2cccc(Cl)c2)CC1` [Example 357, [4-(3-Chlorophenyl)piperazin-1-yl]-(3-{1-[5-chloro-2-(trifluoromethyl)benzyl]-1,2,3,4-tetrahydropyrido[2,3-b]pyrazin-7-yl}phenyl)methanone] was run?
Its IC50 is 100 to 1000 nM.

With `O=C(NC1Cc2ccccc2C1)c1cccc(-c2cnc3c(c2)N(Cc2cc(Cl)ccc2C(F)(F)F)CCN3)c1` [Example 358, 3-{1-[5-Chloro-2-(trifluoromethyl)benzyl]-1,2,3,4-tetrahydropyrido[2,3-b]pyrazin-7-yl}-N-indan-2-ylbenzamide] as the compound, how does the IC50 read?
Its IC50 is 100 to 1000 nM.

How did the IC50 turn out when `O=C(c1cccc(-c2cnc3c(c2)N(Cc2cc(Cl)ccc2C(F)(F)F)CCN3)c1)N1CCN(CCc2ccccc2)CC1` [Example 359, (3-{1-[5-Chloro-2-(trifluoromethyl)benzyl]-1,2,3,4-tetrahydropyrido[2,3-b]pyrazin-7-yl}phenyl)-(4-phenethylpiperazin-1-yl)methanone] was run?
Its IC50 is 100 to 1000 nM.

For `O=C(c1cccc(-c2cnc3c(c2)N(Cc2cc(Cl)ccc2C(F)(F)F)CCN3)c1)N1CCN(c2ccccc2Cl)CC1` [Example 360, [4-(2-Chlorophenyl)piperazin-1-yl]-(3-{1-[5-chloro-2-(trifluoromethyl)benzyl]-1,2,3,4-tetrahydropyrido[2,3-b]pyrazin-7-yl}phenyl)methanone], which IC50 is on record?
Its IC50 is 100 to 1000 nM.

With `O=C(NC1CCN(Cc2ccccc2)C1)c1cccc(-c2cnc3c(c2)N(Cc2cc(Cl)ccc2C(F)(F)F)CCN3)c1` (stereo not shown) [Example 361, N-(1-Benzylpyrrolidin-3-yl)-3-{1-[5-chloro-2-(trifluoromethyl)benzyl]-1,2,3,4-tetrahydropyrido[2,3-b]pyrazin-7-yl}benzamide] as the compound, how does the IC50 read?
The IC50 was less than 100 nM.

Which IC50 does the source give for `O=C(c1cccc(-c2cnc3c(c2)N(Cc2cc(Cl)ccc2C(F)(F)F)CCN3)c1)N1CCN(CC2CCCCC2)CC1` [Example 362, (3-{1-[5-Chloro-2-(trifluoromethyl)benzyl]-1,2,3,4-tetrahydropyrido[2,3-b]pyrazin-7-yl}phenyl)-[4-(cyclohexylmethyl)piperazin-1-yl]methanone] here?
Its IC50 is 100 to 1000 nM.

For `NS(=O)(=O)c1ccc(CNC(=O)c2cccc(-c3cnc4c(c3)N(Cc3cc(Cl)ccc3C(F)(F)F)CCN4)c2)cc1` [Example 363, 3-{1-[5-Chloro-2-(trifluoromethyl)benzyl]-1,2,3,4-tetrahydropyrido[2,3-b]pyrazin-7-yl}-N-(4-sulfamoylbenzyl)benzamide], which IC50 is on record?
The IC50 was 100 to 1000 nM.

`O=C(c1cccc(-c2cnc3c(c2)N(Cc2cc(Cl)ccc2C(F)(F)F)CCN3)c1)N1CCC(N2CCOCC2)CC1` [Example 364, (3-{1-[5-Chloro-2-(trifluoromethyl)benzyl]-1,2,3,4-tetrahydropyrido[2,3-b]pyrazin-7-yl}phenyl)-(4-morpholin-4-ylpiperidin-1-yl)methanone] was tested. Which IC50 did it give?
The IC50 was 100 to 1000 nM.

How did the IC50 turn out when `O=C(c1cccc(-c2cnc3c(c2)N(Cc2cc(Cl)ccc2C(F)(F)F)CCN3)c1)N1CCC[C@H]1CN1CCCC1` [Example 365, (3-{1-[5-Chloro-2-(trifluoromethyl)benzyl]-1,2,3,4-tetrahydropyrido[2,3-b]pyrazin-7-yl}phenyl)-((S)-2-pyrrolidin-1-ylmethylpyrrolidin-1-yl)methanone] was run?
The IC50 was less than 100 nM.

For `O=C(c1cccc(-c2cnc3c(c2)N(Cc2cc(Cl)ccc2C(F)(F)F)CCN3)c1)N1CCCC1c1cccnc1` (stereo not shown) [Example 366, (3-{1-[5-Chloro-2-(trifluoromethyl)benzyl]-1,2,3,4-tetrahydropyrido[2,3-b]pyrazin-7-yl}phenyl)-(2-pyridin-3-ylpyrrolidin-1-yl)methanone], which IC50 is on record?
The IC50 was 100 to 1000 nM.

Which IC50 does the source give for `COc1ccccc1CN(C)C(=O)c1cccc(-c2cnc3c(c2)N(Cc2cc(Cl)ccc2C(F)(F)F)CCN3)c1` [Example 367, 3-{1-[5-Chloro-2-(trifluoromethyl)benzyl]-1,2,3,4-tetrahydropyrido[2,3-b]pyrazin-7-yl}-N-(2-methoxybenzyl)-N-methylbenzamide] here?
The IC50 was 100 to 1000 nM.

With `O=C(c1ccc(-c2cnc3c(c2)N(Cc2cc(Cl)ccc2C(F)(F)F)CCN3)cc1)N1CCN(c2ccccc2)CC1` [Example 368, (4-{1-[5-Chloro-2-(trifluoromethyl)benzyl]-1,2,3,4-tetrahydropyrido[2,3-b]pyrazin-7-yl}phenyl)-(4-phenylpiperazin-1-yl)methanone] as the compound, how does the IC50 read?
Its IC50 is 100 to 1000 nM.

`O=C(c1ccc(-c2cnc3c(c2)N(Cc2cc(Cl)ccc2C(F)(F)F)CCN3)cc1)N1CCN(c2ncccn2)CC1` [Example 369, (4-{1-[5-Chloro-2-(trifluoromethyl)benzyl]-1,2,3,4-tetrahydropyrido[2,3-b]pyrazin-7-yl}phenyl)-(4-pyrimidin-2-ylpiperazin-1-yl)methanone] was tested. Which IC50 did it give?
The IC50 was 100 to 1000 nM.

How did the IC50 turn out when `O=C(c1ccc(-c2cnc3c(c2)N(Cc2cc(Cl)ccc2C(F)(F)F)CCN3)cc1)N1CCN(c2ccc(Cl)cc2)CC1` [Example 370, [4-(4-Chlorophenyl)piperazin-1-yl]-(4-{1-[5-chloro-2-(trifluoromethyl)benzyl]-1,2,3,4-tetrahydropyrido[2,3-b]pyrazin-7-yl}phenyl)methanone] was run?
Its IC50 is 100 to 1000 nM.

For `O=C(c1ccc(-c2cnc3c(c2)N(Cc2cc(Cl)ccc2C(F)(F)F)CCN3)cc1)N1CCC(O)(c2ccc(Cl)cc2)CC1` [Example 371, [4-(4-Chlorophenyl)-4-hydroxypiperidin-1-yl]-(4-{1-[5-chloro-2-(trifluoromethyl)benzyl]-1,2,3,4-tetrahydropyrido[2,3-b]pyrazin-7-yl}phenyl)methanone], which IC50 is on record?
The IC50 was 100 to 1000 nM.

With `O=C(c1ccc(-c2cnc3c(c2)N(Cc2cc(Cl)ccc2C(F)(F)F)CCN3)cc1)N1CCC(n2c(=O)[nH]c3ccccc32)CC1` [Example 372, 1-[1-(4-{1-[5-Chloro-2-(trifluoromethyl)benzyl]-1,2,3,4-tetrahydropyrido[2,3-b]pyrazin-7-yl}benzoyl)piperidin-4-yl]-1,3-dihydrobenzoimidazol-2-one] as the compound, how does the IC50 read?
Its IC50 is 100 to 1000 nM.

With `COc1ccccc1N1CCN(C(=O)c2ccc(-c3cnc4c(c3)N(Cc3cc(Cl)ccc3C(F)(F)F)CCN4)cc2)CC1` [Example 373, (4-{1-[5-Chloro-2-(trifluoromethyl)benzyl]-1,2,3,4-tetrahydropyrido[2,3-b]pyrazin-7-yl}phenyl)-[4-(2-methoxyphenyl)piperazin-1-yl]methanone] as the compound, how does the IC50 read?
The IC50 was 100 to 1000 nM.

`O=C(c1ccc(-c2cnc3c(c2)N(Cc2cc(Cl)ccc2C(F)(F)F)CCN3)cc1)N1CCN(c2cccc(C(F)(F)F)c2)CC1` [Example 374, (4-{1-[5-Chloro-2-(trifluoromethyl)benzyl]-1,2,3,4-tetrahydropyrido[2,3-b]pyrazin-7-yl}phenyl)-{4-[3-(trifluoromethyl)phenyl]piperazin-1-yl}methanone] was tested. Which IC50 did it give?
Its IC50 is 100 to 1000 nM.

`O=C(c1ccc(-c2cnc3c(c2)N(Cc2cc(Cl)ccc2C(F)(F)F)CCN3)cc1)N1CCC(c2ccccc2)CC1` [Example 375, (4-{1-[5-Chloro-2-(trifluoromethyl)benzyl]-1,2,3,4-tetrahydropyrido[2,3-b]pyrazin-7-yl}phenyl)-(4-phenylpiperidin-1-yl)methanone] was tested. Which IC50 did it give?
Its IC50 is 100 to 1000 nM.

Reference: US7601716B2, “Pyridopyrazines and derivatives thereof as ALK and c-Met inhibitors” (Cephalon, Inc., priority 2006, dated 2009)
